From patent US20220033397A1, “PHARMACEUTICAL COMPOUNDS AND THEIR USE AS INHIBITORS OF UBIQUITIN SPECIFIC PROTEASE 19 (USP19)” (ALMAC DISCOVERY LIMITED, priority 2018, published 2022)

Molecular target: T1, Full-length USP19 (Homo sapiens, UniProt O94966)
T1 construct: Full-length USP19 was purchased from Boston Biochem (E-576); purchased Boston Biochem E-576
T1 sequence (O94966 1-1318): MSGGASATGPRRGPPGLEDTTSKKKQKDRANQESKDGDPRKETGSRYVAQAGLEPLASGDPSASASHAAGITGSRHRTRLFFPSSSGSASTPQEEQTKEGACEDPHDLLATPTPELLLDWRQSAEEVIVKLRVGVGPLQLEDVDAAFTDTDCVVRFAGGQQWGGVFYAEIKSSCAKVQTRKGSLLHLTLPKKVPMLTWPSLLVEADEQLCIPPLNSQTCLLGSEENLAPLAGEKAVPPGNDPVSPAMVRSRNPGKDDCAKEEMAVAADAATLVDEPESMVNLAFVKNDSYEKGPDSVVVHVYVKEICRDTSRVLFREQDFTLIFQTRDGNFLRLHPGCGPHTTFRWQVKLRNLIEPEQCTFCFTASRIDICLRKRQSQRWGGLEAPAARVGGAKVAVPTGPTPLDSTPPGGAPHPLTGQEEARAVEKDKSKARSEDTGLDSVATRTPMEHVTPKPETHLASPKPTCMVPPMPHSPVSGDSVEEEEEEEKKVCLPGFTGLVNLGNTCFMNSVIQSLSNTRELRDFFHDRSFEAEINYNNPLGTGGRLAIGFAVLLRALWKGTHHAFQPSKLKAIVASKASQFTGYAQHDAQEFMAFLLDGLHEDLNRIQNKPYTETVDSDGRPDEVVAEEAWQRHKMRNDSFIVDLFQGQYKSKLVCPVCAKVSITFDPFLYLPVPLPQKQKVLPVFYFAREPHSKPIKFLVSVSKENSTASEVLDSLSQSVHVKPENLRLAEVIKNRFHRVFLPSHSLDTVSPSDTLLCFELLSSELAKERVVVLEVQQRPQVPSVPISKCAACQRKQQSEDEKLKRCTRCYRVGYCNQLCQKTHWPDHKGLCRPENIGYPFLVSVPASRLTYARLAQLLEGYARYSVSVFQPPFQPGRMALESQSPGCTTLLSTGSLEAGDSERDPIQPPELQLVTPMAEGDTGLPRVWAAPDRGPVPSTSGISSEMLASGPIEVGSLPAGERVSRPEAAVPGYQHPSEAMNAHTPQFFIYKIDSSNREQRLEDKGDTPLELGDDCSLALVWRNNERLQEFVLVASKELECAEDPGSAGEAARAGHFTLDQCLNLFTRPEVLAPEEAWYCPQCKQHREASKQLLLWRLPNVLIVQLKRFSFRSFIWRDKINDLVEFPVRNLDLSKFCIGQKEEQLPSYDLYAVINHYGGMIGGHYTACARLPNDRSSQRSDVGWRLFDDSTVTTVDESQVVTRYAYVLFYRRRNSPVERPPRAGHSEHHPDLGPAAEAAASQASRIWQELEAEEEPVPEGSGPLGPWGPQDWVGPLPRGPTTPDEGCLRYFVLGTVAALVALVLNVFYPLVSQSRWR
Assay: USP19 fluorescence polarisation (FP) homogeneous assay with Ubiquitin-Lys-TAMRA substrate
Assay type: biochemical
Settings: 2.5 nM USP19, 30 min pre-incubation, average of at least two duplicate experiments
How it was run: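 Full-length USP19 preincubated 30 min at RT with inhibitor (200 μM to 2 μM series, 8–18 points) before adding 500 nM Ubiquitin-Lys-TAMRA substrate.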

IC50	SMILES
< 500 nM	CC1(C)CN(C(=O)N2CCNC[C@H]2c2ccccc2)CC[C@@]1(O)Cn1ccc(-c2ccccc2)cc1=O [Example 288, 1-(((S)-4-Hydroxy-3,3-dimethyl-1-((R)-2-phenylpiperazine-1-carbonyl)piperidin-4-yl)methyl)-4-phenylpyridin-2(1H)-one]
< 500 nM	Cn1nccc1-c1cc(=O)n(C[C@]2(O)CCN(C(=O)N3CCNC[C@H]3c3ccccc3)CC23CCCC3)cn1 [Example 289, 3-(((S)-10-Hydroxy-7-((R)-2-phenylpiperazine-1-carbonyl)-7-azaspiro[4.5]decan-10-yl)methyl)-6-(1-methyl-1H-pyrazol-5-yl)pyrimidin-4(3H)-one]
< 500 nM	O=C(N1CC[C@@](O)(Cn2cnc(N3CCCC3)cc2=O)C2(CCCC2)C1)N1CCNC[C@H]1c1ccccc1 [Example 290, 3-(((S)-10-Hydroxy-7-((R)-2-phenylpiperazine-1-carbonyl)-7-azaspiro[4.5]decan-10-yl)methyl)-6-(pyrrolidin-1-yl)pyrimidin-4(3H)-one]
< 500 nM	Cn1cc(-c2cc(=O)n(C[C@]3(O)CCN(C(=O)N4CCNC[C@H]4c4ccccc4)CC34CCCC4)cn2)cn1 [Example 291, 3-(((S)-10-Hydroxy-7-((R)-2-phenylpiperazine-1-carbonyl)-7-azaspiro[4.5]decan-10-yl)methyl)-6-(1-methyl-1H-pyrazol-4-yl)pyrimidin-4(3H)-one]
< 500 nM	O=C(N1CC[C@@](O)(Cn2cnc(C3CC3)cc2=O)C2(CCCC2)C1)N1CCNC[C@H]1c1ccccc1 [Example 292, 6-Cyclopropyl-3-(((S)-10-hydroxy-7-((R)-2-phenylpiperazine-1-carbonyl)-7-azaspiro[4.5]decan-10-yl)methyl)pyrimidin-4(3H)-one]
50000 to 250000 nM	O=C(N1CC[C@@](O)(Cn2cnc(-c3ccccc3)cc2=O)C2(CCCC2)C1)N1CCOC[C@H]1c1nc2ccccc2[nH]1 [Example 293, 3-(((S)-7-((R)-3-(1H-Benzo[d]imidazol-2-yl)morpholine-4-carbonyl)-10-hydroxy-7-azaspiro[4.5]decan-10-yl)methyl)-6-phenylpyrimidin-4(3H)-one]
< 500 nM	O=C(N[C@H](c1ccccc1)C(F)(F)F)N1CC[C@@](O)(Cn2cnc(-c3ccccc3)cc2=O)C2(CCCC2)C1 [Example 294, (S)-10-Hydroxy-10-((6-oxo-4-phenylpyrimidin-1(6H)-yl)methyl)-N—((R)-2,2,2-trifluoro-1-phenylethyl)-7-azaspiro[4.5]decane-7-carboxamide]
500 to 5000 nM	O=C(N1CCC(O)(Cn2cnc(-c3ccccc3)cc2=O)CC1)N1CCOC[C@H]1c1ccccc1 [Example 295, (R)-3-((4-Hydroxy-1-(3-phenylmorpholine-4-carbonyl)piperidin-4-yl)methyl)-6-phenylpyrimidin-4(3H)-one]
< 500 nM	O=C(N1CCC(O)(Cn2cnc(-c3ccccc3)cc2=O)C2(CCCCC2)C1)N1CCOC[C@H]1c1ccccc1 (stereo partly drawn) [Example 296, 3-((5-Hydroxy-2-((R)-3-phenylmorpholine-4-carbonyl)-2-azaspiro[5.5]undecan-5-yl)methyl)-6-phenylpyrimidin-4(3H)-one]
< 500 nM	O=C(N1CCC(O)(Cn2cnc(-c3ccccc3)cc2=O)CC1)N1CCNC[C@H]1c1ccccc1 [Example 297, (R)-3-((4-Hydroxy-1-(2-phenylpiperazine-1-carbonyl)piperidin-4-yl)methyl)-6-phenylpyrimidin-4(3H)-one]
< 500 nM	O=C(N1CCC(O)(Cn2cnc(-c3ccccc3)cc2=O)C2(CCCCC2)C1)N1CCNC[C@H]1c1ccccc1 (stereo partly drawn) [Example 298, 3-((5-Hydroxy-2-((R)-2-phenylpiperazine-1-carbonyl)-2-azaspiro[5.5]undecan-5-yl)methyl)-6-phenylpyrimidin-4(3H)-one]
500 to 5000 nM	O=C(N1CC[C@@](O)(Cn2cnc(-c3ccccc3)cc2=O)C2(CCCC2)C1)N1CCCN1c1ccccc1 [Example 299, (S)-3-((10-Hydroxy-7-(2-phenylpyrazolidine-1-carbonyl)-7-azaspiro[4.5]decan-10-yl)methyl)-6-phenylpyrimidin-4(3H)-one]
< 500 nM	Cc1cc(=O)n(C[C@]2(O)CCN(C(=O)N3CCNC[C@H]3c3ccccc3)CC23CCCC3)cn1 [Example 300, 3-(((S)-10-Hydroxy-7-((R)-2-phenylpiperazine-1-carbonyl)-7-azaspiro[4.5]decan-10-yl)methyl)-6-methylpyrimidin-4(3H)-one]
< 500 nM	O=C(NCc1cccc(F)c1F)N1CC[C@@](O)(Cn2cnc(-c3ccccc3)cc2=O)C2(CCCC2)C1 [Example 301, (S)—N-(2,3-Difluorobenzyl)-10-hydroxy-10-((6-oxo-4-phenylpyrimidin-1(6H)-yl)methyl)-7-azaspiro[4.5]decane-7-carboxamide]
< 500 nM	O=C(NCc1c(F)cccc1F)N1CC[C@@](O)(Cn2cnc(-c3ccccc3)cc2=O)C2(CCCC2)C1 [Example 302, (S)—N-(2,6-Difluorobenzyl)-10-hydroxy-10-((6-oxo-4-phenylpyrimidin-1(6H)-yl)methyl)-7-azaspiro[4.5]decane-7-carboxamide]
< 500 nM	O=C(NCc1ccc(F)cc1F)N1CC[C@@](O)(Cn2cnc(-c3ccccc3)cc2=O)C2(CCCC2)C1 [Example 303, (S)—N-(2,4-Difluorobenzyl)-10-hydroxy-10-((6-oxo-4-phenylpyrimidin-1(6H)-yl)methyl)-7-azaspiro[4.5]decane-7-carboxamide]
< 500 nM	O=C(NCc1ccc(F)c(F)c1)N1CC[C@@](O)(Cn2cnc(-c3ccccc3)cc2=O)C2(CCCC2)C1 [Example 304, (S)—N-(3,4-Difluorobenzyl)-10-hydroxy-10-((6-oxo-4-phenylpyrimidin-1(6H)-yl)methyl)-7-azaspiro[4.5]decane-7-carboxamide]
< 500 nM	O=C(N1CCC(O)(Cn2cnc(-c3ccccc3)cc2=O)C2(CCC2)C1)N1CCOC[C@H]1c1ccccc1 (stereo partly drawn) [Example 305, 3-((9-Hydroxy-6-((R)-3-phenylmorpholine-4-carbonyl)-6-azaspiro[3.5]nonan-9-yl)methyl)-6-phenylpyrimidin-4(3H)-one]
< 500 nM	O=C(N1CCC(O)(Cn2cnc(-c3ccccc3)cc2=O)C2(CCC2)C1)N1CCNC[C@H]1c1ccccc1 (stereo partly drawn) [Example 306, 3-((9-Hydroxy-6-((R)-2-phenylpiperazine-1-carbonyl)-6-azaspiro[3.5]nonan-9-yl)methyl)-6-phenylpyrimidin-4(3H)-one]
< 500 nM	O=C(NCC1CC(F)(F)C1)N1CC[C@@](O)(Cn2cnc(-c3ccccc3)cc2=O)C2(CCCC2)C1 [Example 307, (S)—N-((3,3-Difluorocyclobutyl)methyl)-10-hydroxy-10-((6-oxo-4-phenylpyrimidin-1(6H)-yl)methyl)-7-azaspiro[4.5]decane-7-carboxamide]
500 to 5000 nM	O=C(NC(C(F)(F)F)C(F)(F)F)N1CC[C@@](O)(Cn2cnc(-c3ccccc3)cc2=O)C2(CCCC2)C1 [Example 308, (S)—N-(1,1,1,3,3,3-Hexafluoropropan-2-yl)-10-hydroxy-10-((6-oxo-4-phenylpyrimidin-1(6H)-yl)methyl)-7-azaspiro[4.5]decane-7-carboxamide]
< 500 nM	O=C(N[C@H](c1ccccc1)C(F)(F)F)N1CC[C@@](O)(Cn2ccc(-c3ccccc3)cc2=O)C2(CCCC2)C1 [Example 309, (S)-10-Hydroxy-10-((2-oxo-4-phenylpyridin-1(2H)-yl)methyl)-N—((R)-2,2,2-trifluoro-1-phenylethyl)-7-azaspiro[4.5]decane-7-carboxamide]
< 500 nM	CC1(C)CN(C(=O)N2CCOC[C@H]2c2ccccc2)CC[C@@]1(O)Cn1cnc(-c2ccccc2)cc1=O [Example 310, 3-(((S)-4-Hydroxy-3,3-dimethyl-1-((R)-3-phenylmorpholine-4-carbonyl)piperidin-4-yl)methyl)-6-phenylpyrimidin-4(3H)-one]
500 to 5000 nM	O=C(NCC1(F)CC1)N1CC[C@@](O)(Cn2cnc(-c3ccccc3)cc2=O)C2(CCCC2)C1 [Example 311, (S)—N-((1-Fluorocyclopropyl)methyl)-10-hydroxy-10-((6-oxo-4-phenylpyrimidin-1(6H)-yl)methyl)-7-azaspiro[4.5]decane-7-carboxamide]
